What was measured:
Polyphenol oxidase 2 [1] = target: T1, Polyphenol oxidase 2 (Agaricus bisporus, UniProt O42713); test: Catecholase Activity Assay; details: pH 6.8; 20 °C
T1 sequence (O42713 whole entry): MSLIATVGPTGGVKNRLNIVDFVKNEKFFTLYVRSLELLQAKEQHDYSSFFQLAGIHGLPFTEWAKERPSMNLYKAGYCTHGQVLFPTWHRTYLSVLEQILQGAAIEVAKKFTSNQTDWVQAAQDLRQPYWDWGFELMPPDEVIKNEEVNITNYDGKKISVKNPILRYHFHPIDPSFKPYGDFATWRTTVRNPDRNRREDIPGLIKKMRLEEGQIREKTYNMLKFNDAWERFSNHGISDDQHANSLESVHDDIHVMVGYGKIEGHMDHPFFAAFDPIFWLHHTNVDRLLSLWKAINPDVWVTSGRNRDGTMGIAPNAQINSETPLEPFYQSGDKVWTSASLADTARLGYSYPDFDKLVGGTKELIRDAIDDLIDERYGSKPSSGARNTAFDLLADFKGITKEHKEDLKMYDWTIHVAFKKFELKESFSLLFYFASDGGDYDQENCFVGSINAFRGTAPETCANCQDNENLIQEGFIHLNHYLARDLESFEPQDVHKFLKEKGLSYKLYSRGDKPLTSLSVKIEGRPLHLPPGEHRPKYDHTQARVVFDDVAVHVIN
Method: (§1) Kinetic assay of catecholase and cresolase activities was carried out through depletion of MeBACat and MePAPh for 1 or 2 min with enzyme concentrations of 11.11 and 112.68 ug/mL at wavelenghts of 473 nm and 352 nm using a Cary spectrophotometer, 100 Biomodel with jacketed cell holders.

Polyphenol oxidase 2 [2] = target: T1, Polyphenol oxidase 2; test: Cresolase Activity Assay; details: pH 6.8; 20 °C
Method: as §1

Structure (SMILES)	Ki (Polyphenol oxidase 2 [1])	Ki (Polyphenol oxidase 2 [2])
CC(C)COC(=S)[S][Na] [Iso-butyl xanthate, II]	21.8 µM	7.2 µM
CC(C)CCOC(=S)[S][Na] [Iso-pentyl xanthate, III]	42.2 µM	6.1 µM
CC(C)OC(=S)[S][Na] [Iso-propyl xanthate, I]	12.9 µM	9.8 µM

From BindingDB's records for doi:10.1080/14756360601114536 (University of Tehran, 2007)
